Laboratory results from ChEMBL document CHEMBL4765261, “Design, synthesis, and biological evaluation of heterotetracyclic quinolinone derivatives as anticancer agents targeting topoisomerases” (Eur J Med Chem, 2020).
Calls of active or inactive are those of the source. The calls are words filed in the database; no cut-off is given here.

How the values were obtained:
[1] = Cytotoxicity against human MDA-MB-231 cells assessed as reduction in cell viability at 10 uM after 72 hrs by MTT assay relative to control; format: cell-based; conditions: read-out: INH
MDA-MB-231 [2] = test: Anticancer activity against human MDA-MB-231 cells assessed as inhibition of cell proliferation measured after 72 hrs by MTT assay; format: functional, cell-based; conditions: MDA-MB-231, 72 h
[3] = target: T1, DNA topoisomerase 1 (Homo sapiens) (UniProt P11387); test: Inhibition of human recombinant topoisomerase 1 expressed in baculovirus-infected insect cells assessed as inhibition of DNA relaxation at 10 uM incubated for 30 mins by ethidium bromide staining based agarose gel electrophoresis method
T1 sequence (whole entry): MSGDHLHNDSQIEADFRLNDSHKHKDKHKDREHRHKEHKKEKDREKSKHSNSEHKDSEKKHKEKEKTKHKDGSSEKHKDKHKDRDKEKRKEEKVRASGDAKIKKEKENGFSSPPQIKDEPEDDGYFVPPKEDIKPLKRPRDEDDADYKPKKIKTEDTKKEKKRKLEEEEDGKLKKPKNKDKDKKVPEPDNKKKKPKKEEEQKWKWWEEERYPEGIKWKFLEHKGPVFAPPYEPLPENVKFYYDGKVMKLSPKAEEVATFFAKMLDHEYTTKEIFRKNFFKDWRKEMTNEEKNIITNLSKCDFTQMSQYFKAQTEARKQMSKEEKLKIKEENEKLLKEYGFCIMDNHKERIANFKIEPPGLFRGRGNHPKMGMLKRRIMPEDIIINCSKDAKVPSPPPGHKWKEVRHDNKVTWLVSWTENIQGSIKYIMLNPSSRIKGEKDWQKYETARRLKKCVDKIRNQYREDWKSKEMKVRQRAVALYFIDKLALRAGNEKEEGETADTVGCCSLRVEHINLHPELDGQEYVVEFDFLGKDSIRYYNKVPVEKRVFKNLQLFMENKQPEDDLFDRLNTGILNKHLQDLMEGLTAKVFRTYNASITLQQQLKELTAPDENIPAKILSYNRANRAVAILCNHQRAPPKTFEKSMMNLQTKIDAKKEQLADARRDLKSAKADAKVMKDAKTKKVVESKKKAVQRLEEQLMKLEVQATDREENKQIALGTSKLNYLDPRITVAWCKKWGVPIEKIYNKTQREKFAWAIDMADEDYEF

MDA-MB-231 [4] = test: Cell cycle arrest in human MDA-MB-231 cells assessed as accumulation at sub-G1 phase at 10 uM after 24 hrs by propidium iodide staining-based flow cytometric analysis (reference value: 0.72%); format: functional
[5] = target: T1, DNA topoisomerase 1 (Homo sapiens); test: Inhibition of human recombinant topoisomerase 1 expressed in baculovirus-infected insect cells assessed as inhibition of DNA relaxation at 1 uM incubated for 30 mins by ethidium bromide staining based agarose gel electrophoresis method
HCT-116 = test: Anticancer activity against human HCT-116 cells assessed as inhibition of cell proliferation measured after 72 hrs by MTT assay; format: functional, cell-based; conditions: HCT-116, 72 h
[6] = target: T1, DNA topoisomerase 1 (Homo sapiens); test: Inhibition of human recombinant topoisomerase 1 expressed in baculovirus-infected insect cells assessed as inhibition of DNA relaxation at 3 uM incubated for 30 mins by ethidium bromide staining based agarose gel electrophoresis method
MDA-MB-468 = test: Anticancer activity against human MDA-MB-468 cells assessed as inhibition of cell proliferation measured after 72 hrs by MTT assay; format: functional, cell-based; conditions: MDA-MB-468, 72 h
[7] = target: DNA topoisomerase 2-alpha (Homo sapiens) (UniProt P11388); test: Inhibition of human recombinant topoisomerase 2alpha expressed in baculovirus-infected insect cells assessed as inhibition of DNA relaxation at 3 uM incubated for 45 mins by ethidium bromide staining based agarose gel electrophoresis method
MDA-MB-231 [8] = test: Cell cycle arrest in human MDA-MB-231 cells assessed as accumulation at sub-G1 phase at 20 uM after 24 hrs by propidium iodide staining based flow cytometric analysis (reference value: 0.72%); format: functional
MCF7 = test: Anticancer activity against human MCF7 cells assessed as inhibition of cell proliferation measured after 72 hrs by MTT assay; format: functional, cell-based; conditions: MCF7, 72 h
NCI-H1299 = test: Anticancer activity against human H1299 cells assessed as inhibition of cell proliferation measured after 72 hrs by MTT assay; format: functional, cell-based; conditions: NCI-H1299, 72 h
[9] = target: DNA topoisomerase 2-alpha (Homo sapiens) (UniProt P11388); test: Inhibition of human recombinant topoisomerase 2alpha expressed in baculovirus-infected insect cells assessed as inhibition of DNA relaxation at 1 uM incubated for 45 mins by ethidium bromide staining based agarose gel electrophoresis method
MDA-MB-231 [10] = test: Induction of apoptosis in human MDA-MB-231 cells assessed as increase in cleaved caspase-8 level incubated for 24 hrs by Western blot analysis; format: functional, cell-based
MCF-10A [11] = test: Induction of cell cycle arrest in human MCF-10A cells assessed as increase in accumulation of cells at sub-G1 phase at 2.5 uM incubated for 24 hrs by propidium iodide based flow cytometry analysis
[12] = target: T1, DNA topoisomerase 1 (Homo sapiens); test: Poison activity at human recombinant topoisomerase I assessed as accumulation of supercoiled DNA at 10 uM measured after 30 mins by ethidium bromide staining based agarose gel electrophoresis
MDA-MB-231 [13] = test: Cell cycle arrest in human MDA-MB-231 cells assessed as accumulation at sub-G1 phase at 2 uM after 24 hrs by propidium iodide staining-based flow cytometric analysis (reference value: 0.72%); format: functional
MDA-MB-231 [14] = test: Induction of DNA damage in human MDA-MB-231 cells assessed as phosphorylation of Ser 139 of histone H2AX measured after 24 hrs by western blotting analysis; format: functional, cell-based
[15] = target: T1, DNA topoisomerase 1 (Homo sapiens); test: Poison activity at human recombinant topoisomerase I assessed as accumulation of supercoiled DNA by measuring restricted DNA mobility at 30 uM measured after 30 mins by ethidium bromide staining based agarose gel electrophoresis
[16] = target: T1, DNA topoisomerase 1 (Homo sapiens); test: Poison activity at human recombinant topoisomerase I in human MDA-MB-231 cells assessed as increase in chromatin incubated for 30 mins by Western blot analysis; format: cell-based
MDA-MB-231 [17] = test: Cell cycle arrest in human MDA-MB-231 cells assessed as accumulation at sub-G1 phase at 4 uM after 24 hrs by propidium iodide staining based flow cytometric analysis (reference value: 0.72%); format: functional
MDA-MB-231 [18] = test: Antiproliferative activity against human […] at 2.5 uM after 72 hrs by MTT assay relative to control; format: functional, cell-based
MDA-MB-231 [19] = test: Cell cycle arrest in human MDA-MB-231 assessed as increase accumulation at G2/M phase incubated for 12 hrs by propidium iodide staining based flow cytometric analysis relative to control; format: functional
MDA-MB-231 [20] = test: Induction of cell cycle arrest in human […] assessed as increase in accumulation of cells at sub-G1 phase at 2.5 uM incubated for 24 hrs by propidium iodide based flow cytometry analysis; format: functional
[21] = target: DNA topoisomerase 2-alpha (Homo sapiens) (UniProt P11388); test: Poison activity at human recombinant topoisomerase II alpha in human MDA-MB-231 cells assessed as increase in chromatin incubated for 30 mins by Western blot analysis; format: cell-based
MCF-10A [22] = test: Antiproliferative activity against human MCF-10A cells at 2.5 uM after 72 hrs by MTT assay relative to control; format: cell-based
MDA-MB-231 [23] = test: Induction of apoptosis in human MDA-MB-231 cells assessed as increase in cleaved caspase-9 level incubated for 24 hrs by Western blot analysis; format: functional, cell-based

Sequence of DNA topoisomerase 2-alpha (Homo sapiens) (P11388 whole entry): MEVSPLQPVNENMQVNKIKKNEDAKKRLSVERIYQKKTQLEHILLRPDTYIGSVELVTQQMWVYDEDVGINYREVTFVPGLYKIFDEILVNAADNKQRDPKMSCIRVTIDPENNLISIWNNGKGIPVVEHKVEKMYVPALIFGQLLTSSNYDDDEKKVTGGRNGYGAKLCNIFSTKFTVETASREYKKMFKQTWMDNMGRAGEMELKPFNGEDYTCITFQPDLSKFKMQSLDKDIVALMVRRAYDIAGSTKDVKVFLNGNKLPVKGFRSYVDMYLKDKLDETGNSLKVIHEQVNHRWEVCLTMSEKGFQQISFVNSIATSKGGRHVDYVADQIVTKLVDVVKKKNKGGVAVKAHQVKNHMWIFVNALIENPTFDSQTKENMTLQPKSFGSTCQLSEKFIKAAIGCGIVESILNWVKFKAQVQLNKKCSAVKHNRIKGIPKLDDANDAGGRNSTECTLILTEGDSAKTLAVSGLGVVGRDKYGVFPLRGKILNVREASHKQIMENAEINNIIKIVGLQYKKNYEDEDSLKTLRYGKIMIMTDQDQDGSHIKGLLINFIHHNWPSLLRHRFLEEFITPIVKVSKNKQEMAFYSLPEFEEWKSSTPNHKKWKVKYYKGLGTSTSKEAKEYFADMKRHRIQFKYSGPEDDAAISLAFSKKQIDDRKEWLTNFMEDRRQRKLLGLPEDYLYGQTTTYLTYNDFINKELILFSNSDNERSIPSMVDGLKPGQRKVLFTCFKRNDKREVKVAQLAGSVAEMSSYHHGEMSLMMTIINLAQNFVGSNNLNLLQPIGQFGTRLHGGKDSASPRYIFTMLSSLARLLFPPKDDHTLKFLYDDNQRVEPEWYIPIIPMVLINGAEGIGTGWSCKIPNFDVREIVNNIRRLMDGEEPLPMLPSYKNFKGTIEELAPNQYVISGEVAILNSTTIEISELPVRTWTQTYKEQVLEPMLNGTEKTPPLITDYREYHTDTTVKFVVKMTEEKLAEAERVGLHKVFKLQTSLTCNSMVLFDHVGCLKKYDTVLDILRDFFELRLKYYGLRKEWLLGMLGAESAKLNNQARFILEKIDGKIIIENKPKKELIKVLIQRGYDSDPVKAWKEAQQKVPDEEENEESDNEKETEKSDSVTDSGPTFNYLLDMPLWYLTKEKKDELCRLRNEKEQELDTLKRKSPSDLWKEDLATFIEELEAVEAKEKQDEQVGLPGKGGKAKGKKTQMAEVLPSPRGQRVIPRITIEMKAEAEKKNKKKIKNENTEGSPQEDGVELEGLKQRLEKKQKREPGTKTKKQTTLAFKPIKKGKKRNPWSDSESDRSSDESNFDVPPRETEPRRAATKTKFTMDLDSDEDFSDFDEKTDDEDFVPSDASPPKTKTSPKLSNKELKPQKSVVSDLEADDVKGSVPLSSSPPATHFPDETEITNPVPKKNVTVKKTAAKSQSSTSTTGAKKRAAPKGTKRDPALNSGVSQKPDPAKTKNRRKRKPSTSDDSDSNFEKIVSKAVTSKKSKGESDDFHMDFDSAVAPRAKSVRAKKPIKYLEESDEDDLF

## O=c1c2cc(F)ccc2sc2c(NCc3ccccc3)nc3ccccc3c12
[1]
  cytotoxicity at 72 h, 10 µM: 21%

## CCCNc1nc2ccccc2c2c(=O)c3cc(F)ccc3sc12
[1]
  cytotoxicity at 72 h, 10 µM: 21%

## CCNc1nc2ccccc2c2c(=O)c3cccc(OC)c3sc12
[1]
  cytotoxicity at 72 h, 10 µM: 21%

## CCCNc1nc2ccccc2c2c(=O)c3ccc(Cl)cc3sc12
[1]
  cytotoxicity at 72 h, 10 µM: < 20%

## CCCNc1nc2ccccc2c2c(=O)c3cc(Cl)ccc3sc12
[1]
  cytotoxicity at 72 h, 10 µM: 21%

## CCNc1nc2ccccc2c2c(=O)c3cc(C)ccc3sc12
[1]
  cytotoxicity at 72 h, 10 µM: 21%

## CCNc1nc2ccccc2c2c(=O)c3cc(F)cc(Cl)c3sc12
[1]
  cytotoxicity at 72 h, 10 µM: 21%

## COc1ccc(CNc2nc3ccccc3c3c(=O)c4cc(Cl)ccc4sc23)cc1
[1]
  cytotoxicity at 72 h, 10 µM: 21%

## NCCCNc1nc2ccccc2c2c(=O)c3cccc(Cl)c3sc12
MDA-MB-231 [2]
  IC50: 2.19 µM
[3]
  inhibition: 100%
MDA-MB-231 [4]
  Activity: 9.8%
[5]
  inhibition: Active
HCT-116
  IC50: 2.51 µM
[6]
  inhibition of DNA relaxation (active/inactive): Active
MDA-MB-468
  IC50: 0.27 µM
[7]
  inhibition: Active
MDA-MB-231 [8]
  Activity: 35.7%
MCF7
  IC50: 4.49 µM
NCI-H1299
  IC50: 3.69 µM
[9]
  inhibition: 100%
[1]
  cytotoxicity at 72 h, 10 µM: > 95%

## COc1ccc2sc3c(NCCCN)nc4ccccc4c3c(=O)c2c1
MDA-MB-231 [2]
  IC50: 4.5 µM
[3]
  inhibition: 100%
[5]
  inhibition: Active
HCT-116
  IC50: > 5 µM
[6]
  inhibition of DNA relaxation (active/inactive): Active
MDA-MB-468
  IC50: 3.04 µM
[7]
  inhibition: Active
MCF7
  IC50: > 5 µM
NCI-H1299
  IC50: > 5 µM
[1]
  cytotoxicity at 72 h, 10 µM: > 95%

## COc1cccc2c(=O)c3c(sc12)c(NCc1ccccc1)nc1ccccc13
[1]
  cytotoxicity at 72 h, 10 µM: 21%

## NCCCNc1nc2ccccc2c2c(=O)c3cc(F)ccc3sc12
MDA-MB-231 [2]
  IC50: 2.9 µM
[3]
  inhibition: 100%
[5]
  inhibition: Active
HCT-116
  IC50: 3.05 µM
[6]
  inhibition of DNA relaxation (active/inactive): Active
MDA-MB-468
  IC50: 1.24 µM
[7]
  inhibition: Active
MCF7
  IC50: 3.98 µM
NCI-H1299
  IC50: 3.02 µM
[1]
  cytotoxicity at 72 h, 10 µM: > 95%

## CCCNc1nc2ccccc2c2c(=O)c3cccc(Cl)c3sc12
[1]
  cytotoxicity at 72 h, 10 µM: < 20%

## NCCCNc1nc2ccccc2c2c(=O)c3cc(Cl)ccc3sc12
MDA-MB-231 [2]
  IC50: 3.39 µM
[5]
  inhibition: Active
HCT-116
  IC50: 3.54 µM
[6]
  inhibition of DNA relaxation (active/inactive): Active
MDA-MB-468
  IC50: 1.09 µM
[7]
  inhibition: Active
MCF7
  IC50: 4.36 µM
NCI-H1299
  IC50: 4.73 µM
[1]
  cytotoxicity at 72 h, 10 µM: > 95%

## CCCNc1nc2ccccc2c2c(=O)c3cc(OC)ccc3sc12
[3]
  Activity: Active
[1]
  cytotoxicity at 72 h, 10 µM: < 20%

## CCNc1nc2ccccc2c2c(=O)c3cccc(F)c3sc12
[1]
  cytotoxicity at 72 h, 10 µM: < 20%

## Cc1ccc2sc3c(NCCCN)nc4ccccc4c3c(=O)c2c1
MDA-MB-231 [2]
  IC50: 3.69 µM
[3]
  inhibition: 100%
[5]
  inhibition: Active
HCT-116
  IC50: 4.22 µM
[6]
  inhibition of DNA relaxation (active/inactive): Active
MDA-MB-468
  IC50: 2.89 µM
[7]
  inhibition: Active
MCF7
  IC50: > 5 µM
NCI-H1299
  IC50: > 5 µM
[1]
  cytotoxicity at 72 h, 10 µM: > 95%

## O=c1c2cccc(F)c2sc2c(NCc3ccccc3)nc3ccccc3c12
[1]
  cytotoxicity at 72 h, 10 µM: < 20%

## Cc1ccc2sc3c(NCc4ccccc4)nc4ccccc4c3c(=O)c2c1
[1]
  cytotoxicity at 72 h, 10 µM: 21%

## NCCNc1nc2ccccc2c2c(=O)c3cc(F)cc(Cl)c3sc12
MDA-MB-231 [2]
  IC50: 1.14 µM
MDA-MB-231 [10]
  Activity: Active
[3]
  inhibition: 100%
MCF-10A [11]
  Activity: 1.6%
[12]
  Activity: Active
MDA-MB-231 [13]
  Activity: 3.6%
[5]
  inhibition: Active
HCT-116
  IC50: 0.53 µM
[6]
  inhibition of DNA relaxation (active/inactive): Active
MDA-MB-468
  IC50: 0.22 µM
MDA-MB-231 [14]
  Activity: Active
[15]
  Activity: Active
[16]
  Activity: Active
MDA-MB-231 [17]
  Activity: 39.4%
MDA-MB-231 [18]
  Activity: Active
MDA-MB-231 [19]
  Activity: Active
[7]
  inhibition: Active
MDA-MB-231 [20]
  Activity: 70.2%
MCF7
  IC50: 0.8 µM
[21]
  Activity: Active
NCI-H1299
  IC50: 0.53 µM
MCF-10A [22]
  Activity: Non-Toxic
[9]
  inhibition: 100%
MDA-MB-231 [23]
  Activity: Active
[1]
  cytotoxicity at 72 h, 10 µM: > 95%

## O=C(Nc1nc2ccccc2c2c(=O)c3cc(Cl)ccc3sc12)c1ccccn1
[1]
  cytotoxicity at 72 h, 10 µM: < 20%

## CCCNc1nc2ccccc2c2c(=O)c3c(Cl)cccc3sc12
[1]
  cytotoxicity at 72 h, 10 µM: < 20%

## O=c1c2cc(F)ccc2sc2c(NCc3cccnc3)nc3ccccc3c12
[1]
  cytotoxicity at 72 h, 10 µM: 21%
